Data from paper PMC8327742 (Haematologica, 2021).
Read-outs that look alike come from different tables or passages of the source.

Legend:
EBF1-PDGFRB [1] = conditions: Ba/F3 cells with mutant fusion; cell viability read-out; gatekeeper; stated gain
EBF1-PDGFRB [2] = assay: viability assay of transformed Ba/F3 cells; format: cell-based, Homo sapiens; conditions: Ba/F3 cells with wild-type fusion; cell viability read-out

Structure (SMILES)	IC50 (EBF1-PDGFRB [1]) [nM]	IC50 (EBF1-PDGFRB [2]) [nM]
Cc1ccc(C(=O)Nc2ccc(CN3CCN(C)CC3)c(C(F)(F)F)c2)cc1C#Cc1cnc2cccnn12 [ponatinib]	23.93	5.73
Cc1nc(Nc2ncc(C(=O)Nc3c(C)cccc3Cl)s2)cc(N2CCN(CCO)CC2)n1 [dasatinib]	–	5.26
